Results taken from patent publication US20240351985A1, “NOVEL COMPOUND AND USE OF SAID COMPOUND” (APHEA.BIO NV, priority 2021, published 2024).
In brackets after ≈: the same amount, converted by molar mass. Several values for one entry are separate records, joined by “and”; a condition that tells them apart may be missing. Equal entries are not always repeated. Where two headings read alike, the source gives them in different places.

Key:
[1] = tested on: Puccinia striiformis; assay: Dose-response liquid-based assay against spores of Puccinia striiformis; assay type: cell-based; conditions: 48 h
[2] = tested on: F. graminearum spores; assay type: cell-based, Fusarium graminearum; conditions: for Halo Diameter / Opacity Grade: 24 hours
[3] = tested on: Fusarium graminearum; assay: microbe, parasite or virus in culture; assay type: cell-based; conditions: 22 h
[4] = tested on: Zymoseptoria tritici; assay: microbe, parasite or virus in culture; assay type: cell-based; conditions: 120 h, incubation 5 d
[5] = tested on: Fusarium graminearum, Puccinia striiformis and Zymoseptoria tritici; assay: organism not typed; assay type: cell-based
[6] = read-out: Fluorescence of resazurin dye (excitation 570 nm, emission 615 nm): AC50 value, Estimation
[7] = read-out: Fluorescence of resazurin dye (excitation 570 nm, emission 615 nm): AC50 value, Range
[8] = read-out: Absorbance (600 nm): AC50 value, Estimation
[9] = read-out: Absorbance (600 nm): AC50 value, Range

SMILES: C=C/C(C)=C/[C@@H](C)C(=O)CC(CC(CC(N)=O)CC(=O)O)SC (stereo partly shown) [C17H27NO4S]
- AC50 [1, 6]: 12.8 µg/mL (≈ 37.5 µM)
- AC50 [1, 7]: 11.7 to 14 µg/mL (≈ 34.1 to 41.1 µM)
- Halo Diameter ([2]; 2 μL pipetted, 0.125 mg/mL): 4.4 mm and 4.7 mm and 4.3 mm
- Opacity Grade ([2]; 2 μL pipetted, 0.125 mg/mL): E (‘E’ means 0-20% inhibition of the pathogen)
- Halo Diameter ([2]; 2 μL pipetted, 0.250 mg/mL): 5.5 mm and 5.6 mm
- Opacity Grade ([2]; 2 μL pipetted, 0.250 mg/mL): D (‘D’ means 20-40% inhibition of the pathogen)
- Halo Diameter ([2]; 2 μL pipetted, 0.500 mg/mL): 6.7 mm and 7.2 mm and 7.1 mm
- Opacity Grade ([2]; 2 μL pipetted, 0.500 mg/mL): B (‘B’ means 60-80% inhibition of the pathogen)
- Halo Diameter ([2]; 2 μL pipetted, 1 mg/mL): 8.3 mm and 8.2 mm
- Opacity Grade ([2]; 2 μL pipetted, 1 mg/mL): A (‘A’ means 80-100% inhibition of the pathogen)
- Halo Diameter ([2]; 2 μL pipetted, 2 mg/mL): 9.1 mm and 9.3 mm
- Opacity Grade ([2]; 2 μL pipetted, 2 mg/mL): A (‘A’ means 80-100% inhibition of the pathogen)
- Halo Diameter ([2]; 2 μL pipetted, 4 mg/mL): 9.5 mm and 9.2 mm and 9.6 mm
- Opacity Grade ([2]; 2 μL pipetted, 4 mg/mL): A (‘A’ means 80-100% inhibition of the pathogen)
- Halo Diameter ([2]; 2 μL pipetted, 8 mg/mL): 9.8 mm and 9.2 mm and 9.7 mm
- Opacity Grade ([2]; 2 μL pipetted, 8 mg/mL): A (‘A’ means 80-100% inhibition of the pathogen)
- Activity against F. graminearum spores ([2]; all concentrations tested (8 mg/mL to 125 μg/mL)): active
- AC50 [3, 8]: 8.9 µg/mL (≈ 26.1 µM)
- AC50 [3, 9]: 7.54 to 10.5 µg/mL (≈ 22.1 to 30.7 µM)
- AC50 [3, 6]: 13.2 µg/mL (≈ 38.8 µM)
- AC50 [3, 7]: 11.8 to 14.8 µg/mL (≈ 34.6 to 43.5 µM)
- AC50 [4, 8]: 16 µg/mL (≈ 46.9 µM)
- AC50 [4, 9]: 14.9 to 17.2 µg/mL (≈ 43.7 to 50.4 µM)
- AC50 [4, 6]: 15.9 µg/mL (≈ 46.6 µM)
- AC50 [4, 7]: 14.8 to 17.1 µg/mL (≈ 43.3 to 50 µM)
- AC50 ([5]; read-out: Active concentrations (AC50 ranges) for hyphal growth in the wells): 7.54 to 17.2 µg/mL (≈ 22.1 to 50.4 µM)
- AC50 ([5]; read-out: Active concentrations (AC50 ranges) for metabolic activity): 11.7 to 17.1 µg/mL (≈ 34.1 to 50 µM)

SMILES: C[C@@H]1[C@H](O)[C@@H](C)/C=C/C=C/C=C/C=C/C=C/C=C/C=C/[C@H](O[C@@H]2O[C@H](C)[C@@H](O)[C@H](N)[C@@H]2O)C[C@@H]2O[C@](O)(C[C@@H](O)C[C@@H](O)[C@H](O)CC[C@@H](O)C[C@@H](O)CC(=O)O[C@H]1C)C[C@H](O)[C@H]2C(=O)O [Amphotericin B, reference compound]
- Halo Diameter ([2]; 10 μL pipetted, 0.125 mg/mL): 9.3 mm
- Opacity Grade ([2]; 10 μL pipetted, 0.125 mg/mL): B (‘B’ means 60-80% inhibition of the pathogen)
- Halo Diameter ([2]; 10 μL pipetted, 0.15625 mg/mL): 7.1 mm
- Opacity Grade ([2]; 10 μL pipetted, 0.15625 mg/mL): C (‘C’ means 40-60% inhibition of the pathogen)
- Halo Diameter ([2]; 10 μL pipetted, 0.250 mg/mL): 9.2 mm and 9 mm and 9.3 mm and 8.7 mm
- Opacity Grade ([2]; 10 μL pipetted, 0.250 mg/mL): A (‘A’ means 80-100% inhibition of the pathogen)
- Halo Diameter ([2]; 10 μL pipetted, 0.3125 mg/mL): 7.7 mm
- Opacity Grade ([2]; 10 μL pipetted, 0.3125 mg/mL): C (‘C’ means 40-60% inhibition of the pathogen)
- Halo Diameter ([2]; 10 μL pipetted, 0.625 mg/mL): 9.1 mm
- Opacity Grade ([2]; 10 μL pipetted, 0.625 mg/mL): B (‘B’ means 60-80% inhibition of the pathogen)
